These are literature values, as cited in patent publication US20190151246A1, “DELAYED-RELEASE TABLETS OF METHYLPHENIDATE” (PRODUCTS & TECHNOLOGY, S.L., priority 2016, published 2019).

Take `COC(=O)C(c1ccccc1)C1CCCCN1` (centres unmarked) [methylphenidate, methyl 2-phenyl-2-(2-piperidyl)acetate]: where the note is “children, estimated”, the half-life in children result is reported as “approximately 2.5 hours”. For the same compound, the half-life (in vivo) was 2 to 4 h.

The term half-life denotes the time needed for the level to fall by half in the phase considered.
